Experimental data published in patent US20030125311A1, “Compounds capable of binding with the cytoskeleton” (priority 2002, published 2003).

What was measured:
[1] = biological target: T1, MAP2-tubulin copolymers (Bos taurus, UniProt A0A3Q1NAK9); assay: Equilibrium binding of PREG [3H] to MAP2-tubulin copolymers; parameters: species or system calf
Experimental: (§1) The calf tubulin is purified according to the protocol of Weingarten et al. (13), but the step using phosphocellulose is replaced by a cation exchange column chromatography (Fractogel, Merck) (14). The microtubules and the tubulin are prepared in L buffer, supplemented with 1 mM of GTP (buffer A).
(§2) The tau and MAP2 proteins are purified according to the protocol of Fellous et al. (12) by heat denaturation of the microtubules and gel filtration on a column, Sephacryl 300® being used instead of the Ultrogel ACA 34. The tau proteins are then Further purified according to the method of Lindwall and Cole (15).
(§3) Purified calf brain tubulin (90 μg/ml), MAP2 (45 μg/ml) or tau protein (25 μg/ml) is incubated with 100 nM of PREG [^3H], with or without a 1,000-fold excess of non-radioactive PREG.
(§4) The B/U values are reported in FIG. 5 as a function of B in nM, (-∘-) representing equilibrium binding of purified calf brain MAP2, and (-∘-) the equilibrium binding of purified calf brain MAP2 associated with purified calf brain tubulin (for the experimental details, see FIG. 1).

[2] = biological target: T2, fetal microtubules (Rattus norvegicus, UniProt P15146); assay: Competition for PREG [3H] binding to fetal microtubules (RCR); settings: PREG = 100
T2 sequence (P15146 whole entry): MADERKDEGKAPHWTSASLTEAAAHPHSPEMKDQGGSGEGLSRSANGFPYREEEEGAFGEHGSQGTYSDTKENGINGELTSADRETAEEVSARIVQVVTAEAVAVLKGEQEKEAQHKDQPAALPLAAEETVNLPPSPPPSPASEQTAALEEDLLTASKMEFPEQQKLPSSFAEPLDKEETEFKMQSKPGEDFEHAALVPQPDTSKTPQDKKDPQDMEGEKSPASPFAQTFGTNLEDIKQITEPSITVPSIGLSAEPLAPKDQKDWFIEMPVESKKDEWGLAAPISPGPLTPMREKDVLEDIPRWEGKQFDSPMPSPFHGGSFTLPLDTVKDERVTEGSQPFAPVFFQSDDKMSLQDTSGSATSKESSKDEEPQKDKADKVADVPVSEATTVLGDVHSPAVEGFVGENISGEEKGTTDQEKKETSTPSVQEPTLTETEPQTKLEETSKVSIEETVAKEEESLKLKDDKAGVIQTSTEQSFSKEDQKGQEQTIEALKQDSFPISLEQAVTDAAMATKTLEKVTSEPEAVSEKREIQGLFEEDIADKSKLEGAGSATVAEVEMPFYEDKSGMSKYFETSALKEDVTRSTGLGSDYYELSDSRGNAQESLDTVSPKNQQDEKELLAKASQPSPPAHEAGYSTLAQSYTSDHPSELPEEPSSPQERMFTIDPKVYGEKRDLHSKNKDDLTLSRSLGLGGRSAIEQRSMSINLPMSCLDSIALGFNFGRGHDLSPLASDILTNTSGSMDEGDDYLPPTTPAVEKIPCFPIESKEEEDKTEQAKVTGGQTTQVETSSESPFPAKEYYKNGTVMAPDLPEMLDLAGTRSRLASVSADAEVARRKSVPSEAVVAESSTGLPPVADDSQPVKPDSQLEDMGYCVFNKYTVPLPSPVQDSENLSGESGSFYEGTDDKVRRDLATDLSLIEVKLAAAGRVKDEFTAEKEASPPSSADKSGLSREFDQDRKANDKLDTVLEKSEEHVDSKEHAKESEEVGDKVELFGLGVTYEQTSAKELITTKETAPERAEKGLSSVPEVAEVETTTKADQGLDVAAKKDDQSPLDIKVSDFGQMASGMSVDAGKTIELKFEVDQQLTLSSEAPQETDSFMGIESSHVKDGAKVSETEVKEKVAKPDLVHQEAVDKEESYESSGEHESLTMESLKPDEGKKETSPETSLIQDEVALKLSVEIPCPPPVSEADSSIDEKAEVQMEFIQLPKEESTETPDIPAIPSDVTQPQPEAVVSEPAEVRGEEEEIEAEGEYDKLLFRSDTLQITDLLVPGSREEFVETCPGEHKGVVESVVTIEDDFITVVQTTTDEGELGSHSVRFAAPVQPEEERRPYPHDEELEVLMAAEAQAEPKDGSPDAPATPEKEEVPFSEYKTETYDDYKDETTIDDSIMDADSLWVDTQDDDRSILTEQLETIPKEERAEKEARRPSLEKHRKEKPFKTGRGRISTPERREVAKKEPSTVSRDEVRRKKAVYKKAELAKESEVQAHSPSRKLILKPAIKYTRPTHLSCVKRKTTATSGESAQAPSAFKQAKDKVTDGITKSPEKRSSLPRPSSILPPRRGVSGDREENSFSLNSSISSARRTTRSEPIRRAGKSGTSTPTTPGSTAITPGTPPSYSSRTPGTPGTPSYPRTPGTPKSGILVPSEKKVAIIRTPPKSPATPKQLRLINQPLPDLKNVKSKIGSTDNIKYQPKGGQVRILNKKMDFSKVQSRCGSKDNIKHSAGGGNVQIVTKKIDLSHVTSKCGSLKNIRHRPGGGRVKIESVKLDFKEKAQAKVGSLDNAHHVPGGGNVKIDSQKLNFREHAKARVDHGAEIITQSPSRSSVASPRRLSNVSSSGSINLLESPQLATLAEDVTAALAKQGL
Experimental: (§5) In trials of competition between pregnenolone and different steroids for the binding studied, 0.2 ml of cytosol is incubated with 100 nM of PREG [^3H] and a 1-, 10-, 100-, and 1,000-fold excess of non-radioactive steroid.
(§6) The microtubules are prepared starting from calf brain or adult or fetal rat brain according to an assembly/disassembly method, as a function of the temperature, in vitro (12).
(§7) The relative competition index was determined as ratios of the concentrations of the competitor (in the […]) versus PREG causing a reduction of 50% of the specific binding of PREG [^3H]×100 (mean±standard error, n=3).
(§8) The binding of PREG [^3H] to microtubules prepared by polymerization/depolymerization cycles was determined.

[3] = biological target: T2, fetal microtubules; assay: Binding of PREG [3H] to purified fetal rat brain microtubules
Experimental: as §6, §8

[4] = tested on: rat brain cytosol binding sites of pregnenolone; assay: Competition trials for PREG [3H] binding in brain cytosol; parameters: key to R.C.R. 50 (relative competition index): IC50(PREG)/IC50(competitor) ×100; PREG = 100; settings: PREG = 100, 50% reduction of specific binding of 100 nM PREG [3H], mean±standard error, n=3
Experimental: as §5
To study the specificity of the binding of PREG [^3H], different steroids were used.
as §7

[5] = biological target: T1, MAP2-tubulin copolymers; assay: Competition for PREG [3H] binding to MAP2-tubulin copolymers (RCR); parameters: species or system calf; settings: MAP2-tubulin copolymers; PREG = 100
Experimental: as §5, §7, §3

[6] = biological target: T3, purified calf MAP2 (Bos taurus, UniProt A0A3Q1NAK9); assay: Equilibrium binding of PREG [3H] to purified calf MAP2
T3 construct: from tissue; host or cells: calf brain microtubules, heat denaturation and Sephacryl 300 gel filtration
T3 sequence (A0A3Q1NAK9 1-1867): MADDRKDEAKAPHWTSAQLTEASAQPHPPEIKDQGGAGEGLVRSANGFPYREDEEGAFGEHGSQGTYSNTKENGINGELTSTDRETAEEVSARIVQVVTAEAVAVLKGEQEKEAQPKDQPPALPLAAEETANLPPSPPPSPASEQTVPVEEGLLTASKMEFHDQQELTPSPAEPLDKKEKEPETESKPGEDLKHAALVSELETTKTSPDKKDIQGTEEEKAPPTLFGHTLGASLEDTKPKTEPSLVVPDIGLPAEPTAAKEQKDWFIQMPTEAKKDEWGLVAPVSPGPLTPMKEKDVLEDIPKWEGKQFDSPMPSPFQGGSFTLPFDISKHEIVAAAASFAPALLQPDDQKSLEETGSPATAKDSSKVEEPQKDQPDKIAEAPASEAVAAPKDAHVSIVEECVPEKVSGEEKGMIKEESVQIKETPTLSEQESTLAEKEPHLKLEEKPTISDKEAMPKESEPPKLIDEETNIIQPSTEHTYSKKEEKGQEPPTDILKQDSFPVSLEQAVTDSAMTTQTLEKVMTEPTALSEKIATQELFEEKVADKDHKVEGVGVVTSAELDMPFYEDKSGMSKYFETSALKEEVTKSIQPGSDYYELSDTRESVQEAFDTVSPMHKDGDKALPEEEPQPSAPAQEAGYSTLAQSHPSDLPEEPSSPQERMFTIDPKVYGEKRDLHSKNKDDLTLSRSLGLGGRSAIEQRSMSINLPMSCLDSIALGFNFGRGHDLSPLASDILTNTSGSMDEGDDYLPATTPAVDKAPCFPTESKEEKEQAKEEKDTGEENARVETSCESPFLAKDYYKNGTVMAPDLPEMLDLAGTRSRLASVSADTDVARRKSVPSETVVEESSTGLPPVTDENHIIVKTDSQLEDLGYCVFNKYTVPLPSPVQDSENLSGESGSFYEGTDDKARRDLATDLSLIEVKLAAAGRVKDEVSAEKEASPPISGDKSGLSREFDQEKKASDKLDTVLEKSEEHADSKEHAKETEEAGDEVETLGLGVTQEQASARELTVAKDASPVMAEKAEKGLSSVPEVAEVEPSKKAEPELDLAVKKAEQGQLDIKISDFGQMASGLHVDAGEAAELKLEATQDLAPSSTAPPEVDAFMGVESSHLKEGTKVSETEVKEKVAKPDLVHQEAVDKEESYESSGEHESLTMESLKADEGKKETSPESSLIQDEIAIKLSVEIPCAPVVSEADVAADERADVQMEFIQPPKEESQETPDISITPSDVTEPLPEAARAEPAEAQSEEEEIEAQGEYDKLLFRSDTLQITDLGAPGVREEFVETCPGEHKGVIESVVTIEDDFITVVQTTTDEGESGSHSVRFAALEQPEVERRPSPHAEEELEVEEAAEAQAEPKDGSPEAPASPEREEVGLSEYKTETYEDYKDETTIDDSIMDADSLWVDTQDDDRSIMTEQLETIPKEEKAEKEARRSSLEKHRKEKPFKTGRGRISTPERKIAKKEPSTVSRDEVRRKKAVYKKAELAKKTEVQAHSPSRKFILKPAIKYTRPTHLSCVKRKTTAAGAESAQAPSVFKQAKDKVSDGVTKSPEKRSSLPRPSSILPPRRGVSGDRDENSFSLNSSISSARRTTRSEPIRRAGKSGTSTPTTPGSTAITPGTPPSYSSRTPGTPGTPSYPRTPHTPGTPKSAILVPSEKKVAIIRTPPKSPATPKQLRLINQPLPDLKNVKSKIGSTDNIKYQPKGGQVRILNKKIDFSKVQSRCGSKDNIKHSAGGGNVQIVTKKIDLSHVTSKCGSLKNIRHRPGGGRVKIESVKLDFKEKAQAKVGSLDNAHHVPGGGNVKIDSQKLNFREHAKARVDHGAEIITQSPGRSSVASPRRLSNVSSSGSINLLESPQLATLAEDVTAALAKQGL
Experimental: as §2, §3, §4

[7] = tested on: purified calf brain tubulin; assay: Saturable binding of PREG [3H] to purified tubulin; settings: tubulin 90 μg/ml, 100 nM PREG [3H] ± 1,000-fold excess PREG
Experimental: as §1, §3

[8] = biological target: T4, microtubules reconstituted with purified tubulin and MAP2 (Bos taurus, UniProt A0A3Q1NAK9); assay: Kinetics of assembling of microtubules (turbidity at 345 nm); type: biochemical, calf; settings: 500 nM steroid, 37° C., 15 min
T4 construct: from tissue; host or cells: calf brain
T4 sequence (A0A3Q1NAK9 1-1867): as above
Experimental: This assembling is measured by monitoring the increases of turbidity with a UVICON® spectrophotometer (Kontron Instruments, Montigny-le-Bretonneux, France)
The microtubules are reconstituted in vitro with purified tubulin (1 mg/ml) and MAP2 (0.05 mg/ml) in buffer A.
The increase of absorbance is measured at 345 nm, at 37° C. and recorded every 30 sec. for 15 min.
The assembling of microtubules is measured either in the absence of steroids (-⋄-); or in the presence of 500 nM of steroid: PREG (- -), progesterone (-X-), estradiol (-V-); or in the presence, at the same time, of PREG and progesterone (-∘-) or of PREG and estradiol (-Δ-) each at a concentration of 500 nM.

[9] = biological target: adult microtubules (Rattus norvegicus, UniProt P15146); assay: Binding of PREG [3H] to purified adult rat brain microtubules
adult microtubules, sequence (Q3KRE8 whole entry): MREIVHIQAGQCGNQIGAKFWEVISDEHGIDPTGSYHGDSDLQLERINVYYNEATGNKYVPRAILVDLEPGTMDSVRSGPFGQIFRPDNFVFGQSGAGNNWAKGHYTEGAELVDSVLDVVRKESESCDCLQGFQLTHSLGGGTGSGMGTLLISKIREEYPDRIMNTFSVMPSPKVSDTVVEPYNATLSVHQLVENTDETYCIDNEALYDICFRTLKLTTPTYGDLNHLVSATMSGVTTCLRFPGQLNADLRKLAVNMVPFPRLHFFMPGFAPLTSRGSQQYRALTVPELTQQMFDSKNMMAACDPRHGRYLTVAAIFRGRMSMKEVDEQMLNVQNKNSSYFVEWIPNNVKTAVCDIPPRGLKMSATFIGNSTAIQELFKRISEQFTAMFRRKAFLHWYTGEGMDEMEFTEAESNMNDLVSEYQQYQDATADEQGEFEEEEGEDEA
adult microtubules, sequence (P68370 whole entry, further chain): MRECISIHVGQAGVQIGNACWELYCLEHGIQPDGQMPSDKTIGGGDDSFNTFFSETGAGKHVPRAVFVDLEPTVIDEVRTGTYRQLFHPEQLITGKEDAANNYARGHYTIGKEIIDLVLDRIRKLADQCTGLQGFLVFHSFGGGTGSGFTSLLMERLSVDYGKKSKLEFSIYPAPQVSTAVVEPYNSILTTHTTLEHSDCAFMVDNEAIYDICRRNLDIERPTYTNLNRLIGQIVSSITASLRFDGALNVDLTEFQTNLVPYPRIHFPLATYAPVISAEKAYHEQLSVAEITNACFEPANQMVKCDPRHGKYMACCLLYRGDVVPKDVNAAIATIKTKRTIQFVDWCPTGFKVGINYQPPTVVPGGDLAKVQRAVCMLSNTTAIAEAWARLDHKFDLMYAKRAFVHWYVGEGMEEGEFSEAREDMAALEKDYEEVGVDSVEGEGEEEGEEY
adult microtubules, sequence (P15146 whole entry): as the sequence (P15146 whole entry) above
Experimental: as §6, §8

[10] = tested on: calf brain tubulin assembled with calf brain MAP2; assay: Electron microscopy of microtubules polymerized in the presence of PREG; type: biochemical; settings: 500 nM of PREG
Experimental: After the polymerization of the microtubules induced by MAP2 in the absence or presence of the substance to be tested, an aliquot portion of the experimental sample is deposited on a hydrophilic grid (300 mesh) covered with carbon. The grids are treated with an aqueous solution of 1% uranyl acetate. Observations are performed with a Phllips CM12 electron microscope.
Analysis was performed of microtubules polymerized in the presence of PREG to verify their appearance.

T1 sequence (A0A3Q1NAK9 1-1867): as the sequence (A0A3Q1NAK9 1-1867) above

Bmax [1]: 135 pmol/mg of MAP2
Kd [1]: 44 nM
RCR [2]: 100
Bmax [3]: 3.7 pmol/mg of protein
Kd [3]: 42.9 nM
R.C.R. 50 (relative competition index) [4]: 100
RCR [5]: 100
Bmax [6]: 16 pmol/mg of MAP2
Kd [6]: 39.2 nM
Bmax [9]: 3.4 pmol/mg of protein
SMILES: CC(=O)C1CCC2C3CC=C4CC(O)CCC4(C)C3CCC12C (stereo not shown) [Pregnenolone]
saturable binding to tubulin [7]: neither tubulin, nor tau protein, nor rabbit IgG binds PREG [^3H] in a saturable manner
effect on assembling of microtubules (absorbance at 345 nm) [8]: induces a strong increase of both the speed and the extent of the assembling of the tubulin
structure of the microtubules [10]: remains completely normal
